Several values for one entry are separate records, joined by “and”; a condition that tells them apart may be missing. Identical values can stand only once.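 In this assay, cells in 96-well plates receive the compound at five concentrations for 48 hours. Endpoints are linearly interpolated between the surrounding concentrations. GI50 = concentration required for 50% inhibition of growth. TGI is the concentration that stops growth completely.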
Assays:
Experiment in all cases: NCI tumour cell line growth inhibition, 48 h
A498 renal = system: A498 renal
CCRF-CEM leukemia = system: CCRF-CEM leukemia
EKVX NSCLC = system: EKVX NSCLC
HCT-116 colon = system: HCT-116 colon
MCF7 breast = system: MCF7 breast
OVCAR-4 ovarian = system: OVCAR-4 ovarian
OVCAR-8 ovarian = system: OVCAR-8 ovarian
SK-MEL-5 melanoma = system: SK-MEL-5 melanoma
SN12C renal = system: SN12C renal
UACC-62 melanoma = system: UACC-62 melanoma

Structure (SMILES)	TGI (A498 renal)	TGI (CCRF-CEM leukemia)	TGI (EKVX NSCLC)	TGI (HCT-116 colon)	TGI (MCF7 breast)	TGI (OVCAR-4 ovarian)	TGI (OVCAR-8 ovarian)	TGI (SK-MEL-5 melanoma)	TGI (SN12C renal)	TGI (UACC-62 melanoma)	GI50 (CCRF-CEM leukemia)	GI50 (EKVX NSCLC)	GI50 (MCF7 breast)	GI50 (UACC-62 melanoma)	GI50 (A498 renal)	GI50 (HCT-116 colon)	GI50 (OVCAR-4 ovarian)	GI50 (OVCAR-8 ovarian)	GI50 (SN12C renal)	GI50 (SK-MEL-5 melanoma)
C/C=C/[P+](c1ccccc1)(c1ccccc1)c1ccccc1	41.3 µM	> 42.4 µM	13.5 µM	20.6 µM	> 45.5 µM	25.4 µM	17.3 µM	9.54 µM	16.5 µM	19.2 µM	–	–	–	–	–	–	–	–	–	–
CN(C)c1ccc(/C=N\NC(=O)CSCC(=O)N/N=C/c2ccc(N(C)C)cc2)cc1	–	> 100 µM	> 100 µM	> 100 µM	> 100 µM	> 100 µM	> 100 µM	> 100 µM	> 100 µM	> 100 µM	–	–	–	–	–	–	–	–	–	–
O=c1ccc2cc(O)c(O)cc2o1	> 100 µM	> 100 µM	> 100 µM	> 100 µM	> 100 µM	> 100 µM	> 100 µM	> 100 µM	> 100 µM	> 100 µM	–	–	–	–	–	–	–	–	–	–
NC(=O)CCCC(NCc1c2ccccc2nc2ccccc12)C(=O)O (stereo unspecified)	–	71.6 µM	> 100 µM	–	–	41.7 µM	> 100 µM	> 100 µM	> 100 µM	–	–	–	–	–	–	–	–	–	–	–
O=c1oc2ccccc2c2c(=O)c3ccc(OC/C(=N/O)c4ccc(Cl)cc4)cc3oc12	15.6 µM	60.8 µM	–	24 µM	49.6 µM	–	65.1 µM	18.7 µM	51.2 µM	24.4 µM	–	–	–	–	–	–	–	–	–	–
CN(C)CCNc1nc(-c2ccc3ccccc3c2)nc2nc[nH]c12	–	52.9 µM	19.8 µM	24.6 µM	20.6 µM	23.8 µM	24.4 µM	25 µM	26.3 µM	22.9 µM	–	–	–	–	–	–	–	–	–	–
NC(N)=N/N=C/c1c(-c2ccccc2)nc2n1ccc1nc(-c3ccccc3)c(/C=N/N=C(N)N)n12	> 100 µM	> 100 µM	65.7 µM	> 100 µM	> 100 µM	> 100 µM	> 100 µM	> 100 µM	> 100 µM	> 100 µM	–	–	–	–	–	–	–	–	–	–
Cc1ccc(S(=O)(=O)NCCSCCNS(=O)(=O)c2ccc(C)cc2)cc1	> 100 µM	> 100 µM	–	> 100 µM	> 100 µM	> 100 µM	> 100 µM	> 100 µM	> 100 µM	–	–	–	–	–	–	–	–	–	–	–
O=S(=O)(Sc1ccc(Cl)cc1)c1ccc(Cl)cc1	34.5 µM	18.5 µM	57.5 µM	28.6 µM	–	41.7 µM	30.2 µM	28.6 µM	25.4 µM	31.4 µM	–	–	–	–	–	–	–	–	–	–
CC(=O)Nc1ccccc1SCCSSCCSc1ccccc1NC(C)=O	–	70.4 µM	> 100 µM	> 100 µM	> 100 µM	57.1 µM	> 100 µM	> 100 µM	> 100 µM	> 100 µM	–	–	–	–	–	–	–	–	–	–
CC(=O)C(O)N1C(=O)C=CC1=O (stereo unspecified)	> 25 µM and 31.3 µM and 39 µM	–	25 µM and 33.5 µM and 12.3 µM	–	> 25 µM and 32900 µM	–	–	–	–	–	> 25 µM and 2.74 µM	21.2 µM and 18.7 µM	14200 µM	7170 µM	–	–	–	–	–	–
CC1=NN(c2ccccc2)C(=O)/C1=C/c1ccc(O)cc1	> 100 µM	> 100 µM	> 100 µM	> 100 µM	> 100 µM	> 100 µM	> 100 µM	> 100 µM	> 100 µM	> 100 µM	–	–	–	–	–	–	–	–	–	–
CCCCCCCSc1nc2c(C(=O)OCC)ncn2c2ccccc12	–	> 100 µM	> 100 µM	> 100 µM	–	–	> 100 µM	–	> 100 µM	> 100 µM	–	–	–	–	–	–	–	–	–	–
CC1=C2C(=O)c3ccccc3C(=O)[C@H]2[C@H]2CCO[C@H]2O1	> 100 µM	69.8 µM	91.6 µM	79 µM	23.6 µM	37.4 µM	45.2 µM	30.8 µM	40.4 µM	39.7 µM	–	–	–	–	–	–	–	–	–	–
CCCCCCNC(=O)c1cnc(Cl)cn1	–	> 100 µM	20.7 µM	30.7 µM	23.6 µM	47.9 µM	34.5 µM	30.4 µM	26 µM	33.4 µM	–	–	–	–	–	–	–	–	–	–
Cc1c2cc[n+](CCN3CCCCC3)cc2c(C)c2c1[nH]c1ccc(O)cc12	48 µM and 30.5 µM	17.4 µM and > 100 µM	24.6 µM and 51.5 µM	24.1 µM and 26.1 µM	39.7 µM and 11.5 µM	7.39 µM and 24.6 µM	30.6 µM and 44.7 µM	31.2 µM and 11.1 µM	20.8 µM and 6.03 µM	36.7 µM and 31.2 µM	1.8 µM	7.83 µM	–	11.4 µM	3.48 µM	4.75 µM	2.98 µM	3.36 µM	0.16 µM	–
O=C1c2c(c3c4ccccc4[nH]c3c3ccc4ccccc4c23)C(=O)N1CCN1CCCCC1	9.85 µM	11.3 µM	> 100 µM	–	2.34 µM	5.74 µM	4.48 µM	3.1 µM	1.73 µM	2.59 µM	0.272 µM	13.4 µM	0.0388 µM	1.21 µM	1.18 µM	–	2.03 µM	1.27 µM	0.447 µM	1.51 µM
CC1C(O)C2(Oc3cc4c(c5c3[C@@H](CC5O)[C@H]2C)CCC2Cc3nc5c(nc3C[C@@]42C)CC2CCC3C4=C[C@H]6O[C@@]7(O[C@@](C)(CO)C[C@@H]7O)C(C)[C@@]6(O)[C@]4(C)[C@@H](O)CC3[C@]2(C)C5)OC1(C)C (stereo partly specified)	0.208 µM	0.194 µM	> 3.67 µM	1.02 µM	> 3.67 µM	> 3.67 µM	1.36 µM	> 3.67 µM	> 3.67 µM	0.231 µM	–	–	–	–	–	–	–	–	–	–
COc1ccc(-c2c3c(nc4nc(SCCc5ccccc5)nc(N)c24)CCCC3)cc1OC	–	> 100 µM	> 100 µM	> 100 µM	> 100 µM	> 100 µM	> 100 µM	> 100 µM	> 100 µM	> 100 µM	–	–	–	–	–	–	–	–	–	–
CC12CCC(C(=O)OC1=O)C(C)(C)O2 (stereo unspecified)	–	> 100 µM	> 100 µM	> 100 µM	> 100 µM	> 100 µM	> 100 µM	> 100 µM	> 100 µM	> 100 µM	–	–	–	–	–	–	–	–	–	–
CN(C)CCCNc1ccc2ncn3c4ccccc4c(=O)c1c23	–	23.4 µM	–	15.1 µM	–	97.1 µM	20 µM	–	> 100 µM	34.7 µM	–	–	–	–	–	–	–	–	–	–
COc1ccc([C@@H]2ON(C)[C@H]3CN(C)C(=O)[C@@H]23)cc1	–	> 100 µM	–	> 100 µM	> 100 µM	> 100 µM	> 100 µM	> 100 µM	> 100 µM	–	–	–	–	–	–	–	–	–	–	–
CCOC(=O)/C(Cl)=C(\C)Nc1nc2c(ccc3ccccc32)s1	> 100 µM	> 100 µM	> 100 µM	> 100 µM	> 100 µM	> 100 µM	> 100 µM	> 100 µM	> 100 µM	> 100 µM	–	–	–	–	–	–	–	–	–	–
CN1CCCCC1CCN1CCCCC1 (stereo unspecified)	> 100 µM	–	> 100 µM	> 100 µM	> 100 µM	> 100 µM	> 100 µM	> 100 µM	> 100 µM	> 100 µM	–	–	–	–	–	–	–	–	–	–
NC(=O)NN=C(CS)CS	23.4 µM	> 100 µM	33.7 µM	> 100 µM	> 69 µM	> 100 µM	77.3 µM	32.8 µM	55 µM	72.5 µM	–	–	–	–	–	–	–	–	–	–
Cc1cc(NCc2cc(Nc3ccnc4cc(Cl)ccc34)ccc2F)nc(N2CCCC2)n1	3.32 µM	> 100 µM	11.1 µM	–	–	4.54 µM	–	3.19 µM	–	–	0.353 µM	2.43 µM	–	–	1.44 µM	–	1.27 µM	–	–	1.76 µM
O=NC1C(Cl)C2CC1C1C(Br)C(Br)CC21 (stereo unspecified)	> 100 µM	> 100 µM	> 100 µM	> 100 µM	> 100 µM	> 100 µM	> 100 µM	> 100 µM	> 100 µM	> 100 µM	–	–	–	–	–	–	–	–	–	–
